Laboratory results as given in patent US8822491B2, “Methods and compositions for treating β-thalassemia and sickle cell disease” (Academia Sinica, priority 2011, dated 2014).
pIC50: −log10 of the molar value. Read-outs that look alike come from different tables or passages of the source.

How the values were obtained:
Format in all cases: cell-based
[1] = system: human erythroid progenitor cells; assay: Cell proliferation (alamar Blue) of differentiated primary human erythroid cells; conditions: for pIC50: Erythroid progenitor cell, 72 h, read-out: IC50 (concentration at which the cell proliferation rate is reduced by 50%)
Description: FIG. 3 illustrates induction of the endogenous globin genes in the primary culture of human erythroid progenitor cells by compound A. (A) Dosage effect of compound A in the differentiated human erythroid progenitor cells. The differentiated primary cultured cells were treated with different concentrations of compound A for 3 days. Total mRNA was extracted, and relative induction of the β and γ globin mRNAs was determined by real time RT-PCR analysis. The cell proliferation abilities were determined with use of alamar Blue reagent (mock control as 100%). The white bars indicated the relative expression levels of β-globin. The gray bars represent the relative levels of γ-globin mRNA. (B) Comparison of γ and β globin gene expression patterns in primary erythroid cultured cells treated with different fetal globin inducing agents. […] The total RNAs were then isolated for real time RT-PCR analysis. Relative induction of the β globin gene (white bars) and the γ globin gene (grey bars) was then determined.
IC50 values are the concentrations of the individual compounds at which the cell proliferation rates are reduced by 50%.
(§1) Mouse erythroleukemic (MEL) cells, an adult erythroid cell line (Friend, et al. (1971) Proc Natl Acad Sci USA 68:378-82), were maintained in DMEM medium (Gibco) supplemented with 10% FBS and 1% penicillin-streptomycin, in 37° C. chamber under a 5% CO2 humidified atmosphere. For establishing stable cell lines, transfection of the reporter pmLAR-Gp-DsRed-Bp-d2EGFP into MEL cells was carried out using the Neon™ transfection system (Invitrogen). 2×10^6 MEL cells were transfected with 5 μg of the plasmid. Following microporation, the MEL cells were seeded in 10 ml antibiotics-free DMEM for 24 hrs and selected with […] of neomycin for one month. The primary human erythroid culture was initiated by maintaining the purified mononuclear cells in SFEM medium with 1× cc100 cytokine mix (StemSpan) for 7 days. The cells were then kept in the differentiation medium (SFEM with 20 ng/ml SCF, 1 U/ml EPO, 5 ng/ml IL-3, 2 micromolar dexamethasone) for another 7 days at a density of 0.1−1×10^6 cells/ml. The cells were treated with chemical compound at day 7 post-differentiation and then harvested for further analysis after 3 days of compound treatment.

[2] = system: mouse embryonic εy globin mRNA; assay: Real-time RT-PCR of endogenous embryonic globin mRNA in MEL cells
Description: 5×10^4 MEL cells carrying the dual fluorescence reporter were seeded on optical Packard 96-well view plates, treated with […] of the individual compound for 3 days, and primary screened for their DsRed intensity with use of the Wallac Victor3 1420 multilabel counter (Ex: 550/9; Em: 620). The secondary screenings were performed using a digital image detector, Cellomics Arrayscan 3.0 system, which doubly confirmed the intracellular DsRed fluorescence induced by the compound treatment. The endogenous globin gene expression patterns in the positive MEL cells from the primary and secondary screens as well as in compound-treated primary human erythroid cultures were subsequently identified by real time RT-PCR analysis.
(§2) Total RNAs were isolated with use of the RNAspin Mini kit (GE Healthcare). cDNA synthesis was carried out using SuperScript II reverse transcriptase (Invitrogen). Quantitative RT-PCR was performed using the SYBR Green PCR Master Mix (Applied Biosystems) and ABI 7500 real-time System. All data were analyzed after normalization to the expression level of the mouse or human […] gene.

[3] = system: γ globin mRNA; assay: Real time RT-PCR of γ globin mRNA in primary human erythroid cultures; parameters: expression level of the fetal γ globin gene: dose or concentration left out as unconfirmed
Description: as §1, §2

[4] = system: β globin mRNA; assay: Real time RT-PCR of β globin mRNA in primary human erythroid cultures; parameters: dose or concentration left out as unconfirmed; conditions: STO-609, 3 days, FIG. 7A
Description: as §1, with “The cells were treated with chemical compound at day 7 post-differentiation and then harvested for further analysis after 3 days of compound treatment.” left out
as §2

[5] = system: c-Myb; assay: Real-time RT-PCR of c-Myb expression in primary human erythroid cultures; conditions: different concentrations of STO-609, 3 days, FIG. 7D
Description: Dosage effects of STO-609 on the proliferation and γ/β globin gene expression of differentiated human erythroid progenitor cells were analyzed as described for compounds A-F. The differentiated primary cultured erythroid cells were treated with different concentrations of STO-609 for 3 days. (A) Relative induction of β (white bars) and γ globin mRNAs (black bars) was determined by real time RT-PCR analysis. The proliferation curve of the cells is shown with the mock control being 100%. (B) Relative expression levels of NF-E4 were determined by real time RT-PCR analysis and shown by the grey bars. (C) Relative expression levels of Bcl11a in response to treatments with different concentrations of STO-609 are shown (white bars). (D) Relative expression levels of c-Myb in cells treated with different concentrations of STO-609 are shown (black bars). The mock control is set as 1. […]
as §2

[6] = system: Bcl11a; assay: Real-time RT-PCR of Bcl11a expression in primary human erythroid cultures; conditions: different concentrations of STO-609, 3 days, FIG. 7C
Description: (§3) Primary human erythroid cultures were treated with 0.25 μM of compound A, and the relative expression levels of different transcription factors were then determined by real-time RT-PCR analysis. The white bars indicate the expression levels of mock control set as 1. The black bars are the relative expression levels in compound A-treated cells.
(§4) Mouse erythroleukemic (MEL) cells, an adult erythroid cell line (Friend, et al. (1971) Proc Natl Acad Sci USA 68:378-82), were maintained in DMEM medium (Gibco) supplemented with 10% FBS and 1% penicillin-streptomycin, in 37° C. chamber under a 5% CO2 humidified atmosphere. For establishing stable cell lines, transfection of the reporter pmLAR-Gp-DsRed-Bp-d2EGFP into MEL cells was carried out using the Neon™ transfection system (Invitrogen). 2×10^6 MEL cells were transfected with 5 μg of the plasmid. Following microporation, the MEL cells were seeded in 10 ml antibiotics-free DMEM for 24 hrs and selected with […] of neomycin for one month. […]
as §2

[7] = system: NF-E4; assay: Real-time RT-PCR of NF-E4 expression in primary human erythroid cultures; conditions: different concentrations of STO-609, 3 days, FIG. 7B
Description: as §3, §4, §2

[8] = differentiated human primary erythroid cells, 3 days
[9] = different concentrations of compound A, 3 days, FIG. 3A

SMILES: O=c1c2cccc3cccc(c32)c2nc3ccccc3n12 [compound B, Benzo[de]benzo[4,5]imidazo[2,1-a]isoquinolin-7-one]
- pIC50 [1, 8]: 4.66

SMILES: NC(=O)NO [hydroxyurea]
- pIC50 [1, 8]: 3.83

SMILES: O=C(O)c1ccc(C(=O)O)c2c(-c3ccc4c(=O)n5c6ccccc6nc5c5ccc(C(=O)O)c3c45)ccc(C(=O)O)c12 [compound A, 8-(3-Carboxy-7-oxo-7H-benzo[de]benzo[4,5]imidazo[2,1-a]isoquinolin-4-yl)-naphthalene-1,4,5-tricarboxylic acid]
- induction of endogenous mouse embryonic εy globin mRNA expression level [2]: more than 10 fold
- γ-globin induction fold compared to TSA, hydroxyurea and sodium butyrate ([3]; compound A […] vs TSA 0.33 μM, HU 100 μM, NaB 0.5 mM, 3 days, FIG. 3B): highest γ-globin induction fold
- relative expression level of the γ globin gene as a function of concentration [3, 9]: significantly increased
- pIC50 [1, 8]: 6.70
- proliferation rates of the cells [1, 9]: in reverse relationship with the concentration of compound A

SMILES: O=c1c2cccc3c(Cl)ccc(c32)c2nc3ccccc3n12 [compound C, 3-Chloro-benzo[de]benzo[4,5]imidazo[2,1-a]isoquinolin-7-one]
- pIC50 [1, 8]: 4.12

SMILES: CCCC(=O)[O-].[Na+] [sodium butyrate]
- pIC50 ([1]; Homo sapiens): 3.65

SMILES: O=C(O)c1ccc2c(=O)n3c4ccccc4nc3c3ccc(C(=O)O)c1c23 [compound F, 7-Oxo-7H-benzo[de]benzo[4,5]imidazo[2,1-a]isoquinoline-3,4-dicarboxylic acid]
- pIC50 [1, 8]: 3.99

SMILES: CC(=O)O.O=C(O)c1ccc2c3c1cccc3c(=O)n1c3ccccc3nc21 [STO-609, 7-oxo-7H-benzimidazo[2,1-a]benz[de]isoquinoline-3-carboxylic acid acetate]
- expression level of the adult β globin gene (elevated?) [4]: but not the adult β globin
- transcript of c-Myb [5]: significantly reduced
- expression level of the γ globin gene repressor Bcl11a [6]: down-regulated
- concentration at which the fetal γ globin gene expression was elevated ([3]; STO-609, 3 days, FIG. 7A): ≥ 50 µM
- expression level of the fetal γ globin gene ([3]; STO-609, 3 days, FIG. 7A): elevated
- ability to induce fetal γ globin expression ([3]; survey of compounds with the benzo[de]benzo[4,5]imidazo[2,1-a]isoquinolin-7-one core): displays the fetal γ globin-inducting capability
- transcription of the γ globin gene activator NF-E4 [7]: up-regulation
